# In PubChem BioAssay AID256 (DTP/NCI, 2004):
# “And” between values parts separate entries of the source, which are not always exact repeats. Equal entries are not always repeated. Inconclusive results and toxic doses are left out.
# Test system: CD2F1 mice, L1210 leukemia ip, survival T/C
# Assay: NCI In Vivo Anticancer Drug Screen. Data for tumor model L1210 Leukemia (intraperitoneal) in CD2F1 (CDF1) mice
# Settings: higher = longer survival
# Outline: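 Antitumor effect is scored in animals hosting a serially transplanted tumor. Values compare compound-dosed animals against vehicle-only controls as a simple quotient.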
# [1] = endpoint: mean survival time, dose: 100.0 mg/kg/injection, schedule: Q01DX009 (ip), vehicle: saline with Tween-80
# [2] = endpoint: mean survival time, dose: 200.0 mg/kg/injection, schedule: Q01DX009 (ip), vehicle: saline with Tween-80
smiles,measurement,setting,value
CCC1(O)C(=O)OCc2c1cc1n(c2=O)Cc2cc3ccc(CN)cc3nc2-1 (centres undefined),T/C,"endpoint: median survival time, dose: 10.0 mg/kg/injection, schedule: Q04DX002 (ip), vehicle: saline with Tween-80",109 % of control
same,T/C,"endpoint: median survival time, dose: 10.0 mg/kg/injection, schedule: Q04DX002 (ip), vehicle: water",102 % of control
same,T/C,"endpoint: median survival time, dose: 20.0 mg/kg/injection, schedule: Q04DX002 (ip), vehicle: saline with Tween-80",109 % of control
same,T/C,"endpoint: median survival time, dose: 20.0 mg/kg/injection, schedule: Q04DX002 (ip), vehicle: water",102 % of control
same,T/C,"endpoint: median survival time, dose: 40.0 mg/kg/injection, schedule: Q04DX002 (ip), vehicle: saline with Tween-80",106 % of control
same,T/C,"endpoint: median survival time, dose: 40.0 mg/kg/injection, schedule: Q04DX002 (ip), vehicle: water",107 % of control
same,T/C,"endpoint: median survival time, dose: 80.0 mg/kg/injection, schedule: Q04DX002 (ip), vehicle: saline with Tween-80",113 % of control
same,T/C,"endpoint: median survival time, dose: 80.0 mg/kg/injection, schedule: Q04DX002 (ip), vehicle: water",108 % of control
CC(=O)OCC1OC(n2nc(-c3ccccc3)c(=O)n(-c3ccccc3)c2=O)C(OC(C)=O)C(OC(C)=O)C1OC(C)=O (centres undefined),T/C,"endpoint: mean survival time, dose: 3.8 mg/kg/injection, schedule: Q01DX005 (ip), vehicle: water",96 % of control
same,T/C,"endpoint: mean survival time, dose: 7.5 mg/kg/injection, schedule: Q01DX005 (ip), vehicle: water",96 % of control
same,T/C,"endpoint: mean survival time, dose: 15.0 mg/kg/injection, schedule: Q01DX005 (ip), vehicle: water",96 % of control
same,T/C,"endpoint: mean survival time, dose: 30.0 mg/kg/injection, schedule: Q01DX005 (ip), vehicle: water",101 % of control
same,T/C,"endpoint: mean survival time, dose: 60.0 mg/kg/injection, schedule: Q01DX005 (ip), vehicle: water",101 % of control
C[n+]1ccc(/C(=N\O)c2ccccc2)cc1,T/C,"endpoint: mean survival time, dose: 37.5 mg/kg/injection, schedule: Q04DX003 (ip), vehicle: saline",100 % of control
same,T/C,"endpoint: mean survival time, dose: 75.0 mg/kg/injection, schedule: Q01DX001 (ip), vehicle: saline",101 % of control
same,T/C,"endpoint: mean survival time, dose: 75.0 mg/kg/injection, schedule: Q04DX003 (ip), vehicle: saline",100 % of control
same,T/C,"endpoint: mean survival time, dose: 150.0 mg/kg/injection, schedule: Q01DX001 (ip), vehicle: saline",97 % of control
same,T/C,"endpoint: mean survival time, dose: 150.0 mg/kg/injection, schedule: Q04DX003 (ip), vehicle: saline",95 % of control
CC(CN1CC(=O)NC(=O)C1)N1CC(=O)NC(=O)C1 (centres undefined),T/C,"endpoint: mean survival time, dose: 4.0 mg/kg/injection, schedule: Q01DX009 (ip), vehicle: saline",112 % of control
same,T/C,"endpoint: mean survival time, dose: 8.0 mg/kg/injection, schedule: Q01DX009 (ip), vehicle: saline",123 % of control
same,T/C,"endpoint: mean survival time, dose: 32.0 mg/kg/injection, schedule: Q01DX009 (ip), vehicle: saline",158 % of control
same,T/C,"endpoint: mean survival time, dose: 32.0 mg/kg/injection, schedule: Q04DX003 (ip), vehicle: saline",117 % of control
same,T/C,"endpoint: mean survival time, dose: 50.0 mg/kg/injection, schedule: Q01DX001 (ip), vehicle: saline",96 % of control
same,T/C,"endpoint: mean survival time, dose: 64.0 mg/kg/injection, schedule: Q01DX009 (ip), vehicle: saline",124 % of control
same,T/C,"endpoint: mean survival time, dose: 128.0 mg/kg/injection, schedule: Q01DX009 (ip), vehicle: saline",104 % of control
same,T/C,"endpoint: mean survival time, dose: 256.0 mg/kg/injection, schedule: Q04DX003 (ip), vehicle: saline",196 % of control
same,T/C,"endpoint: mean survival time, dose: 512.0 mg/kg/injection, schedule: Q04DX003 (ip), vehicle: saline",251 % of control
same,T/C,"endpoint: median survival time, dose: 180.0 mg/kg/injection, schedule: Q04DX003 (ip), vehicle: Klucel (hydroxypropylcellulose) (HPC)",169 % of control and 170 % of control
same,T/C,"endpoint: median survival time, dose: 300.0 mg/kg/injection, schedule: Q04DX003 (ip), vehicle: Klucel (hydroxypropylcellulose) (HPC)",236 % of control
same,T/C,"endpoint: median survival time, dose: 500.0 mg/kg/injection, schedule: Q04DX003 (ip), vehicle: Klucel (hydroxypropylcellulose) (HPC)",122 % of control
Nc1cc(OCc2ccccc2)c2n[nH]nc2n1,T/C,"endpoint: mean survival time, dose: 25.0 mg/kg/injection, schedule: Q01DX005 (ip), vehicle: other",96 % of control
same,T/C,"endpoint: mean survival time, dose: 50.0 mg/kg/injection, schedule: Q01DX005 (ip), vehicle: other",92 % of control
same,T/C,"endpoint: mean survival time, dose: 200.0 mg/kg/injection, schedule: Q01DX005 (ip), vehicle: other",94 % of control
same,T/C,"endpoint: mean survival time, dose: 400.0 mg/kg/injection, schedule: Q01DX005 (ip), vehicle: other",105 % of control
O=C1OC(=O)C2CC(Br)C(Br)CC12 (centres undefined),T/C,[1],95 % of control
same,T/C,[2],98 % of control
same,T/C,"endpoint: mean survival time, dose: 400.0 mg/kg/injection, schedule: Q01DX009 (ip), vehicle: saline with Tween-80",91 % of control
O=S(O)C(=NCc1ccccc1)NCc1ccccc1,T/C,[1],105 % of control
same,T/C,[2],86 % of control
